Experimental data from publication PMC6704710, “Preclinical evaluation of 3D185, a novel potent inhibitor of FGFR1/2/3 and CSF-1R, in FGFR-dependent and macrophage-dominant cancer models” (Journal of Experimental & Clinical Cancer Research : CR, 2019).

Assays:
Assay in all cases: Eurofins kinase panel
Type in all cases: biochemical
Settings in all cases: read-out: Inhibition rate (%)
[1] = target: T1, MKK6(h) (Homo sapiens, UniProt P52564)
T1 construct: purchased Eurofins (KinaseProfiler)
T1 sequence (P52564 1-334): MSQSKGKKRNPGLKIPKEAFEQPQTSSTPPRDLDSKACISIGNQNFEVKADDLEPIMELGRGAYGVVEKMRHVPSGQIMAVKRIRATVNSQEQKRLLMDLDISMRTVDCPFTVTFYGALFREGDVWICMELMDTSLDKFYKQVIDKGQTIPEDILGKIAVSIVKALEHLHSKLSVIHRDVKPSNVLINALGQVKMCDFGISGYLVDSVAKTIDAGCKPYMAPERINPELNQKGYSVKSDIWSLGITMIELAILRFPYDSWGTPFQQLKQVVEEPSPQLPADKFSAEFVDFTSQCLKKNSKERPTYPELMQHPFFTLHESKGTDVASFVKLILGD

[2] = target: T2, CLIK1(h) (Homo sapiens, UniProt Q8TDR2)
T2 construct: purchased Eurofins (KinaseProfiler)
T2 sequence (Q8TDR2 whole entry): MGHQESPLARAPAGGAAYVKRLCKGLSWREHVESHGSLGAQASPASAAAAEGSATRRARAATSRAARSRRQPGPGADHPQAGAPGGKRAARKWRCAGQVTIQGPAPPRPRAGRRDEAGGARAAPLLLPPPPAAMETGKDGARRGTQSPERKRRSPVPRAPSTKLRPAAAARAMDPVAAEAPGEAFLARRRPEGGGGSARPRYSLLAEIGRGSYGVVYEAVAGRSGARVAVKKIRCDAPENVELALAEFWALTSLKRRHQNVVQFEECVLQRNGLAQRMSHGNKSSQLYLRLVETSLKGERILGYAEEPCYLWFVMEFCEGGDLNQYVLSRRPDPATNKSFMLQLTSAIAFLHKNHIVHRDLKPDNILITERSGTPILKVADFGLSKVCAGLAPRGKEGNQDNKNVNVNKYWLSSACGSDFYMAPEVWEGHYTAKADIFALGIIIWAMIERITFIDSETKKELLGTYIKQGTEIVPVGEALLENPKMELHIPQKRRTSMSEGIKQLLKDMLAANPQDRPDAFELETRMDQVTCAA

[3] = target: T3, LOK(h) (Homo sapiens, UniProt O94804)
T3 construct: purchased Eurofins (KinaseProfiler)
T3 sequence (O94804 whole entry): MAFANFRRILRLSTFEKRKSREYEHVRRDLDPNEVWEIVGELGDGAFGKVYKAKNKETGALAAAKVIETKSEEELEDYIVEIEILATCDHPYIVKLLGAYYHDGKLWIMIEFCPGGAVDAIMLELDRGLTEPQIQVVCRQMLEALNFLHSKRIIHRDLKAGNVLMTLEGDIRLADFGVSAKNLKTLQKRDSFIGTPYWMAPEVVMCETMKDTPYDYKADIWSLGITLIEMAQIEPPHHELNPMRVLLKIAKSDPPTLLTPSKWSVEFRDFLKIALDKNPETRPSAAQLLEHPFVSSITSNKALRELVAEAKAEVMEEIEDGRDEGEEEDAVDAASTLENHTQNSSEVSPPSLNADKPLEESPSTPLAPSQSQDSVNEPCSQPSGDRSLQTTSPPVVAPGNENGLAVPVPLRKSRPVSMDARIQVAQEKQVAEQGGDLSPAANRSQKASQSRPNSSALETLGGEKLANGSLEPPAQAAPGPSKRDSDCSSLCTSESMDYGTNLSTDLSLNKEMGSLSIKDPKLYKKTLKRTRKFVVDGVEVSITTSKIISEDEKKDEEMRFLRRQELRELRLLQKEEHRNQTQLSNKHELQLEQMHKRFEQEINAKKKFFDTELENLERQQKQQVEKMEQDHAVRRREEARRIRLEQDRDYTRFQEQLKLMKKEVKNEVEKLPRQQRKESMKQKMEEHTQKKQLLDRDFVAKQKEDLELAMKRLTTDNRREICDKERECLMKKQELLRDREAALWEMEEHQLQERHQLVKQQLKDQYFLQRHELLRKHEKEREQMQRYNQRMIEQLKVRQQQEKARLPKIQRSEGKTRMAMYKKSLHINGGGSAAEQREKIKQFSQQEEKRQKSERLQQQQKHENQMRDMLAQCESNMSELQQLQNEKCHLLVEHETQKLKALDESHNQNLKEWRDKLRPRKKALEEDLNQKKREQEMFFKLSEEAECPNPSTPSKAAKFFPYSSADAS

[4] = target: T4, ASK1(h) (Homo sapiens, UniProt Q99683)
T4 construct: purchased Eurofins (KinaseProfiler)
T4 sequence (Q99683 1-1374): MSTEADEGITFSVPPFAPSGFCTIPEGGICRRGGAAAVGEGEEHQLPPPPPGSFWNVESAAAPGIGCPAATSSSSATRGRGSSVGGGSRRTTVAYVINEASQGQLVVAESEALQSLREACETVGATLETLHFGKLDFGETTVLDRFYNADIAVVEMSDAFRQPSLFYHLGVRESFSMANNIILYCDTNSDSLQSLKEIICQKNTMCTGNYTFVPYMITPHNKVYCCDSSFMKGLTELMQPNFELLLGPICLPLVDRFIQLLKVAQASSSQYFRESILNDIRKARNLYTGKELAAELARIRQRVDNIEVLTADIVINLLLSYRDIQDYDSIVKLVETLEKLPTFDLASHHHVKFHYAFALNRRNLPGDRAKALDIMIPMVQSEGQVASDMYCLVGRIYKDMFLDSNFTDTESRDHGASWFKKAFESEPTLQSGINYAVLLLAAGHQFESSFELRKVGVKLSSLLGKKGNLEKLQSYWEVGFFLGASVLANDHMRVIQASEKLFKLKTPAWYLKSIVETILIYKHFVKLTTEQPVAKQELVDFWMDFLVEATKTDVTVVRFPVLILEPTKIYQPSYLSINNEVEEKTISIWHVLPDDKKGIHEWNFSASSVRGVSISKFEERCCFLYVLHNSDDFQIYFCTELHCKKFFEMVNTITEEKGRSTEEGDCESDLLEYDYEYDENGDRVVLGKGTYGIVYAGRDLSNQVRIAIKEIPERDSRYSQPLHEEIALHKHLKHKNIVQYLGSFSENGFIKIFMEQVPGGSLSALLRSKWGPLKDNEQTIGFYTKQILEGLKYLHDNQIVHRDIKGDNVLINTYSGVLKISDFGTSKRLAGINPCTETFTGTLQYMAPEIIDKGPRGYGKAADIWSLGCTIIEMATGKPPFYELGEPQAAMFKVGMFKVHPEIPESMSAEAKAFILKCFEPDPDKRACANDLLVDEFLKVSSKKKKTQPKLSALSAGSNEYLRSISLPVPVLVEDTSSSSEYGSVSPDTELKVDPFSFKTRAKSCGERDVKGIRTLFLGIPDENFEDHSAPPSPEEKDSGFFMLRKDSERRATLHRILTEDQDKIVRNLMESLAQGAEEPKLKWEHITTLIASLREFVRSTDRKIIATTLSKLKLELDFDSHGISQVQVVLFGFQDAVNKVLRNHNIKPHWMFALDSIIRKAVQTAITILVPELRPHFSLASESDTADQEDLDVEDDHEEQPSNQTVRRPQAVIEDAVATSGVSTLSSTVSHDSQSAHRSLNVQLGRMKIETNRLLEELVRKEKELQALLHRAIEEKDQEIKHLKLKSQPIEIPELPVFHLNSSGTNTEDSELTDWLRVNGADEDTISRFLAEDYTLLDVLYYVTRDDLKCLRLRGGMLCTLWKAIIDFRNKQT

[5] = target: T5, PI3 Kinase (p110α/p85α)(h) (Homo sapiens, UniProt P42336)
T5 construct: purchased Eurofins (KinaseProfiler)
T5 sequence (P42336 whole entry): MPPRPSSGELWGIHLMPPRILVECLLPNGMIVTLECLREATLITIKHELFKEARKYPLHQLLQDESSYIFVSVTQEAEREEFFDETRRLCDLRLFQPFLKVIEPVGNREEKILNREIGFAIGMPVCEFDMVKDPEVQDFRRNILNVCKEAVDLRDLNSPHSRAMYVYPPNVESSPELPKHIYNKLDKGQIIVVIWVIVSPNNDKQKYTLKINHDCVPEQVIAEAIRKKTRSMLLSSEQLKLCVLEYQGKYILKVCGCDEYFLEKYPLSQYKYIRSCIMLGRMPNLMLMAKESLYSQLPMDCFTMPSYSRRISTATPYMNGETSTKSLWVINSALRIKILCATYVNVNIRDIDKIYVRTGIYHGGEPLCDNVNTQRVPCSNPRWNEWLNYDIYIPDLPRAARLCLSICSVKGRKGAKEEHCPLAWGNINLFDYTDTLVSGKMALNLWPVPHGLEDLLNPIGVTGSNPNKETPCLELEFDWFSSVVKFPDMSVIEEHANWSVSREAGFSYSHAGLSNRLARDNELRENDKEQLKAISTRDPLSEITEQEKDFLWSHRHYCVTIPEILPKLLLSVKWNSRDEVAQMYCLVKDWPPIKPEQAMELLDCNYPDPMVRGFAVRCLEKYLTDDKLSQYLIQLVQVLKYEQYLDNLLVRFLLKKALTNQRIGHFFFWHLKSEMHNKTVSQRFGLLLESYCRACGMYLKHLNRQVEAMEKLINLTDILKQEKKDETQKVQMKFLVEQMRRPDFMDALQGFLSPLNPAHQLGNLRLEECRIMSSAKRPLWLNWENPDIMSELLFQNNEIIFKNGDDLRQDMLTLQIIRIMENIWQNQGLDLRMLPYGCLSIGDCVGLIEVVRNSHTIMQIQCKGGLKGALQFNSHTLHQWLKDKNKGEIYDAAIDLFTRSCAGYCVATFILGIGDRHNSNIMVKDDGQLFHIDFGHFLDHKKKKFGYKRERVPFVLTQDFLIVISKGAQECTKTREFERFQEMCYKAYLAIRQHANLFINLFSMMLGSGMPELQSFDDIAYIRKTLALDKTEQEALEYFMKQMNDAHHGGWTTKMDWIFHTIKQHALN
T5 sequence (P27986 whole entry partner): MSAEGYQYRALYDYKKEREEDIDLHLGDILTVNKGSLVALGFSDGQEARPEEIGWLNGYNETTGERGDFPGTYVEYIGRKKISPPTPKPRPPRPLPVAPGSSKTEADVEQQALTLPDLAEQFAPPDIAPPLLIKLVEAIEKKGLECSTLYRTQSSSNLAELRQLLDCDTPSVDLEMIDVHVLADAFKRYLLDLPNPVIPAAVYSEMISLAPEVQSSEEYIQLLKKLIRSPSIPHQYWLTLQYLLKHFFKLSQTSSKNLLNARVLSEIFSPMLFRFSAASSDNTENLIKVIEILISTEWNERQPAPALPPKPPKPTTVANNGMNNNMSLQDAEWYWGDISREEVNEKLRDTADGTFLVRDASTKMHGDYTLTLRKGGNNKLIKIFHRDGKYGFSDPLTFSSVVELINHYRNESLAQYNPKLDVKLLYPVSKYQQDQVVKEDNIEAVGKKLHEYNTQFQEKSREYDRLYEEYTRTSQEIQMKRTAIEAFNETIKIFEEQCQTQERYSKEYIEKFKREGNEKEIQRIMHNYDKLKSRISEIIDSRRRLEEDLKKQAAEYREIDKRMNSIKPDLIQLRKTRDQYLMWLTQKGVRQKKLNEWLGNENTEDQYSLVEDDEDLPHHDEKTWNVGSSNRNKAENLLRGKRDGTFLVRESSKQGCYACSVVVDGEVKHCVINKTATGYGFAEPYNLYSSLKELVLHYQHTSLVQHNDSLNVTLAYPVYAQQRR

[6] = target: T6, TSSK2(h) (Homo sapiens, UniProt Q96PF2)
T6 construct: purchased Eurofins (KinaseProfiler)
T6 sequence (Q96PF2 1-358): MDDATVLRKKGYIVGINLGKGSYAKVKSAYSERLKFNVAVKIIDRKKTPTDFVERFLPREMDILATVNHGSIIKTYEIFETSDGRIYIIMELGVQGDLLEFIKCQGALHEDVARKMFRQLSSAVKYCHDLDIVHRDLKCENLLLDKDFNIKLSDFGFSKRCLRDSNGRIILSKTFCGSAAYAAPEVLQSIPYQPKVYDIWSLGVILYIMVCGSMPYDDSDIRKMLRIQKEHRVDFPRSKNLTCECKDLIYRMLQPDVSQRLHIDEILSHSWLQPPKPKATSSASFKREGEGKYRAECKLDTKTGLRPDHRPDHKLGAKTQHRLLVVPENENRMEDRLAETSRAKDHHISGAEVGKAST

COc1cc(OC)c(Cl)c(-c2ccc3c(NC(=O)c4ccc(N5CCNC(C)(C)C5)cc4)n[nH]c3n2)c1Cl [3D185]
inhibition at 0.01 µM ([1]; 10 nM): 11% | inhibition at 0.1 µM ([1]; 100 nM): 0% | inhibition at 1 µM ([1]; 1000 nM): 2% | inhibition at 0.01 µM ([2]; 10 nM): 0% | inhibition at 0.1 µM ([2]; 100 nM): -1% | inhibition at 1 µM ([2]; 1000 nM): 12% | inhibition at 0.01 µM ([3]; 10 nM): 1% | inhibition at 0.1 µM ([3]; 100 nM): 27% | inhibition at 1 µM ([3]; 1000 nM): 77% | inhibition at 0.01 µM ([4]; 10 nM): -6% | inhibition at 0.1 µM ([4]; 100 nM): -7% | inhibition at 1 µM ([4]; 1000 nM): -2% | inhibition at 0.01 µM ([5]; 10 nM): -1% | inhibition at 0.1 µM ([5]; 100 nM): 1% | inhibition at 1 µM ([5]; 1000 nM): 2% | inhibition at 0.01 µM ([6]; 10 nM): 6% | inhibition at 0.1 µM ([6]; 100 nM): 5% | inhibition at 1 µM ([6]; 1000 nM): -4%
